Data as given in ChEMBL document CHEMBL1255225, “Antiviral activity of various 1-(2'-deoxy-β-D-lyxofuranosyl), 1-(2'-fluoro-β-D-xylofuranosyl), 1-(3'-fluoro-β-D-arabinofuranosyl), and 2'-fluoro-2',3'-didehydro-2',3'-dideoxyribose pyrimidine nucleoside analogues against duck hepatitis B virus (DHBV) and human hepatitis B virus (HBV) replication” (J Med Chem, 2010).

Experiments:
[1] = Cytotoxicity against HuH7 cells; format: cell-based, Huh-7; details: human
Duck hepatitis B virus [2] = experiment: Antiviral activity against DHBV infected in duck hepatocytes assessed as inhibition of viral DNA replication relative to control; format: functional, Hepatocyte; design: concentration or dose not given beside the values
Hepatitis B virus [3] = experiment: Antiviral activity against HBV assessed as inhibition of viral DNA replication relative to control; format: functional; design: concentration or dose not given beside the values
Duck hepatitis B virus [4] = experiment: Antiviral activity against DHBV infected in duck hepatocytes assessed as inhibition of viral DNA replication at 10 ug/ml; format: functional, Hepatocyte; design: scale not given: the % may be the effect or the level left
Hepatitis B virus [5] = experiment: Antiviral activity against HBV assessed as inhibition of viral DNA replication at 10 ug/mL; format: functional; design: scale not given: the % may be the effect or the level left
Duck hepatitis B virus [6] = experiment: Antiviral activity against DHBV infected in duck hepatocytes assessed as inhibition of viral DNA replication; format: functional, organism-based; details: Hepatocyte
Duck hepatitis B virus [7] = experiment: Antiviral activity against DHBV infected in duck hepatocytes assessed as inhibition of viral DNA replication at 1 ug/ml; format: functional, Hepatocyte; design: scale not given: the % may be the effect or the level left
Hepatitis B virus [8] = experiment: Antiviral activity against HBV assessed as inhibition of viral DNA replication at 5 ug/mL; format: functional; design: scale not given: the % may be the effect or the level left
Hepatitis B virus [9] = experiment: Antiviral activity against HBV assessed as inhibition of viral DNA replication; format: functional, organism-based
Hepatitis B virus [10] = experiment: Antiviral activity against drug resistant HBV infected in M204I cells assessed as inhibition of viral DNA replication; format: functional, organism-based
Hepatitis B virus [11] = experiment: Antiviral activity against drug resistant HBV infected in M204I cells assessed as inhibition of viral DNA replication at 5 ug/mL; format: functional; design: scale not given: the % may be the effect or the level left
Hepatitis B virus [12] = experiment: Antiviral activity against drug resistant HBV infected in M204I cells assessed as inhibition of viral DNA replication at 1 ug/mL; format: functional; design: scale not given: the % may be the effect or the level left
Hepatitis B virus [13] = experiment: Antiviral activity against HBV assessed as inhibition of viral DNA replication at 0.5 ug/mL; format: functional; design: scale not given: the % may be the effect or the level left
Duck hepatitis B virus [14] = experiment: Antiviral activity against DHBV infected in duck hepatocytes assessed as inhibition of viral DNA replication at 0.05 ug/ml; format: functional, Hepatocyte; design: scale not given: the % may be the effect or the level left
Hepatitis B virus [15] = experiment: Antiviral activity against HBV assessed as inhibition of viral DNA replication at 1 ug/mL; format: functional; design: scale not given: the % may be the effect or the level left
Hepatitis B virus [16] = experiment: Antiviral activity against drug resistant HBV infected in M204I cells assessed as inhibition of viral DNA replication at 10 ug/mL; format: functional; design: scale not given: the % may be the effect or the level left
Hepatitis B virus [17] = experiment: Antiviral activity against drug resistant HBV infected in M204I cells assessed as inhibition of viral DNA replication at 1 to 5 ug/mL; format: functional; design: scale not given: the % may be the effect or the level left
Duck hepatitis B virus [18] = experiment: Antiviral activity against DHBV infected in duck hepatocytes assessed as inhibition of viral DNA replication at 0.01 to 0.05 ug/mL; format: functional, Hepatocyte; design: scale not given: the % may be the effect or the level left
Hepatitis B virus [19] = experiment: Antiviral activity against HBV assessed as inhibition of viral DNA replication at 0.5 to 1 ug/mL; format: functional; design: scale not given: the % may be the effect or the level left

Structure (SMILES)	CC50 [1] [µM]	Activity (Duck hepatitis B virus [2]) [%]	Activity (Hepatitis B virus [3]) [%]	Activity (Duck hepatitis B virus [4]) [%]	Activity (Hepatitis B virus [5]) [%]	EC50 (Duck hepatitis B virus [6]) [µM]	EC50 (Hepatitis B virus [9]) [µM]	EC50 (Hepatitis B virus [10]) [µM]	also measured
O=c1[nH]c(=O)n([C@H]2C[C@@H](O)[C@@H](CO)O2)cc1Br	> 651	0	0	–	–	–	–	–	–
O=c1ccn([C@H]2C[C@@H](O)[C@@H](CO)O2)c(=O)[nH]1	> 877	0	0	–	–	–	–	–	–
Cc1cn([C@H]2C[C@@H](O)[C@@H](CO)O2)c(=O)[nH]c1=S	> 775	0	0	–	–	–	–	–	–
CCc1cn([C@H]2C[C@@H](O)[C@@H](CO)O2)c(=O)[nH]c1=O	> 781	0	0	–	–	–	–	–	–
O=c1[nH]c(=O)n([C@H]2C[C@@H](O)[C@@H](CO)O2)cc1Cl	> 763	–	–	25	15	–	–	–	–
O=c1ccn([C@@H]2O[C@H](CO)[C@@H](F)[C@@H]2O)c(=O)[nH]1	> 813	–	–	25	15	–	–	–	–
Cc1cn([C@@H]2O[C@H](CO)[C@@H](F)[C@@H]2O)c(=O)[nH]c1=O	> 769	0	0	–	–	–	–	–	–
O=c1ccn([C@@H]2O[C@H](CO)[C@H](O)[C@H]2F)c(=O)[nH]1	> 813	–	–	50	40	40.6	–	–	–
Cc1cn([C@@H]2O[C@H](CO)[C@H](O)[C@H]2F)c(=O)[nH]c1=O	> 769	–	–	72	60	3.84	19.2	19.2	Activity (Duck hepatitis B virus [7]): 50%; Activity (Hepatitis B virus [8]): 50%; Activity (Hepatitis B virus [11]): 50%
Cc1cn([C@@H]2O[C@H](CO)C=C2F)c(=O)[nH]c1=O	> 413	–	–	94	85	0.2	2	4.1	Activity (Hepatitis B virus [12]): 50%; Activity (Duck hepatitis B virus [7]): 67%; Activity (Hepatitis B virus [13]): 50%; Activity (Duck hepatitis B virus [14]): 50%; Activity (Hepatitis B virus [15]): 58%
CCc1cn([C@@H]2O[C@H](CO)C=C2F)c(=O)[nH]c1=O	> 781	–	–	50	50	39.1	39.1	39.1	Activity (Hepatitis B virus [16]): 50%
Cc1cn([C@H]2C[C@@H](O)[C@@H](CO)O2)c(=O)[nH]c1=O	> 826	–	–	65	50	4.13	41.3	–	Activity (Duck hepatitis B virus [7]): 50%; Activity (Hepatitis B virus [16]): 45%
Nc1ncnc2c1ncn2[C@H]1CC(O)[C@@H](CO)O1 (single isomer, unassigned) [DEOXYADENOSINE]	–	–	–	40	36	–	–	–	–
O=c1[nH]c(=O)n([C@H]2CC(O)[C@@H](CO)O2)cc1F (single isomer, unassigned) [FLOXURIDINE]	> 813	0	0	–	–	–	–	–	–
O=c1[nH]c(=O)n([C@H]2CC(O)[C@@H](CO)O2)cc1C(F)(F)F (single isomer, unassigned) [TRIFLURIDINE]	> 675	–	–	70	55	3.37	33.7	33.7	Activity (Duck hepatitis B virus [7]): 50%; Activity (Hepatitis B virus [16]): 50%
Nc1nc(NC2CC2)c2ncn([C@H]3C=C[C@@H](CO)C3)c2n1 [ABACAVIR]	–	–	–	–	–	–	–	< 2.6	Activity (Hepatitis B virus [17]): 80%
O=c1[nH]c(=O)n([C@H]2C[C@H](O)[C@@H](CO)O2)cc1I [IDOXURIDINE]	> 282	0	0	–	–	–	–	–	–
Nc1ccn([C@@H]2CS[C@H](CO)O2)c(=O)n1 [LAMIVUDINE]	> 873	–	–	–	–	< 0.044	0.22	> 44	Activity (Duck hepatitis B virus [18]): 95%; Activity (Hepatitis B virus [19]): 85%; Activity (Hepatitis B virus [16]): 40%
